# Measurements reported in patent US20140200175A1, “SUPPRESSION OF TOXIN PRODUCTION OF C[…]” (University of Central Florida Research Foundation, Inc., priority 2012, published 2014).
# “Also recorded” adds a separate entry of the source.
# Tests used:
# [1] = tested on: tcdB; settings: 16.7 mM, mRNA harvested after 72 hours of growth
# [2] = tested on: C. difficile; settings: added to the culture medium, concentration-dependent, reference (32); cited from earlier work
# [3] = tested on: tcdA; settings: 16.7 mM, mRNA harvested after 72 hours of growth
# [4] = tested on: C. difficile (VPI10463) toxin A and toxin B; assay: Extracellular toxin in cell free supernatants by SDS-PAGE with GelCode Blue staining; format: cell-based, Clostridium difficile; settings: 16.7 mM; for toxin levels in media supernatants (band larger than 225 kDa): 72 hour growth period, 7.5% gel, versus control
# Experimental: FIG. 2 illustrates that toxin production occurs earlier and is increased with the addition of L-proline or glycine to the culture media of C. difficile, but is diminished with L-hydroxyproline. C. difficile (VPI10463) culture media was collected by centrifugation at the indicated time points. Cell free supernatants were filtered (0.2 μm filter) and equal volumes (50 μL) were separated by SDS-PAGE and stained overnight with GelCode Blue. Gel migration was compared with that of purified toxin A (List Biologicals).
# For analysis of extracellular toxins, 50 μL aliquots of cell free supernatant from each C. difficile culture across a 72 hour growth study was analyzed by sodium dodecyl sulfate-polyacrylamide gel electrophoresis (SDS-PAGE) (7.5% polyacrylamide). The separated proteins were visualized after staining overnight with GelCode Blue (Thermo Scientific, Waltham, Mass.).
# [5] = tested on: C. difficile (VPI10463); assay: Growth curve of C. difficile in rich medium (TYGSe), optical density at 600 nm; format: cell-based, Clostridium difficile; settings: VPI10463, rich medium plus 16.7 mM amino acid, 72 hour growth period
# [6] = tested on: C. difficile spore; settings: alongside taurocholate, reference (45); cited from earlier work
# [7] = tested on: C. difficile (VPI10463); settings: stationary phase (24 to 72 hours), 16.7 mM; versus control and the other amino acids
# Experimental: Optical density (FIG. 1A) was followed for 72 hours after inoculation. Total protein (FIG. 1B) and extracellular protein (FIG. 1C) were quantified in cell free supernatants according to the method described by Bradford (46).
# Optical density measurements of cultures at 600 nm were determined using a Molecular Devices SpectraMax 190 96-well plate reader at the times indicated for each experiment. Cultures were centrifuged at 16,100×g for five minutes. The resulting cell free supernatants were filtered (0.2 μm) and assayed for protein as described by Bradford (46) using bovine serum albumin (Thermo Scientific, Rockford, Ill.) as a standard.
SMILES,tcdB transcript relative to control cells [1],intracellular toxin levels [2],tcdA transcript relative to control cells [3],toxin levels in media supernatants (band larger than 225 kDa) [4],reduction in tcdB transcription ([1]; relative to control cells) [%],growth (in words) [5],reduction in tcdA transcription ([3]; relative to control cells) [%],spore germination [6],extracellular protein levels [7],toxin produced earlier ([4]; onset of toxin band)
O=C(O)[C@@H]1CCCN1 [L-proline],approximately three,significantly reduced,approximately three,higher toxin levels than the control,–,–,–,–,–,–
N[C@@H](CS)C(=O)O [L-cysteine],–,significantly reduced,–,–,–,–,–,–,–,–
"O=C(O)[C@@H]1CC(O)CN1 (stereo partly drawn) [L-hydroxyproline, L-4-hydroxyproline]",–,–,–,no band corresponding to toxin was visible,≥ 75,largest increase in growth; also recorded: comparable growth,≥ 75,–,–,–
NCC(=O)O [glycine],nine,–,nine,higher toxin levels than the control,–,–,–,potent spore co-germinant,significantly higher,approximately 24 hours
